The text below walks through data of patent US20060035901A1, “Methotrexate derivatives useful for treating cancer and arthritis” (Serenex, Inc., priority 2004, published 2006).

The test deals with T1, pyruvate carboxylase (PYC) (Sus scrofa, UniProt A0A8W4F6F0).
T1 construct: a porcine liver proteome was run over an ATP-Sepharose™ column; from tissue; host or cells: porcine liver
T1 sequence (A0A8W4F6F0 1-1157): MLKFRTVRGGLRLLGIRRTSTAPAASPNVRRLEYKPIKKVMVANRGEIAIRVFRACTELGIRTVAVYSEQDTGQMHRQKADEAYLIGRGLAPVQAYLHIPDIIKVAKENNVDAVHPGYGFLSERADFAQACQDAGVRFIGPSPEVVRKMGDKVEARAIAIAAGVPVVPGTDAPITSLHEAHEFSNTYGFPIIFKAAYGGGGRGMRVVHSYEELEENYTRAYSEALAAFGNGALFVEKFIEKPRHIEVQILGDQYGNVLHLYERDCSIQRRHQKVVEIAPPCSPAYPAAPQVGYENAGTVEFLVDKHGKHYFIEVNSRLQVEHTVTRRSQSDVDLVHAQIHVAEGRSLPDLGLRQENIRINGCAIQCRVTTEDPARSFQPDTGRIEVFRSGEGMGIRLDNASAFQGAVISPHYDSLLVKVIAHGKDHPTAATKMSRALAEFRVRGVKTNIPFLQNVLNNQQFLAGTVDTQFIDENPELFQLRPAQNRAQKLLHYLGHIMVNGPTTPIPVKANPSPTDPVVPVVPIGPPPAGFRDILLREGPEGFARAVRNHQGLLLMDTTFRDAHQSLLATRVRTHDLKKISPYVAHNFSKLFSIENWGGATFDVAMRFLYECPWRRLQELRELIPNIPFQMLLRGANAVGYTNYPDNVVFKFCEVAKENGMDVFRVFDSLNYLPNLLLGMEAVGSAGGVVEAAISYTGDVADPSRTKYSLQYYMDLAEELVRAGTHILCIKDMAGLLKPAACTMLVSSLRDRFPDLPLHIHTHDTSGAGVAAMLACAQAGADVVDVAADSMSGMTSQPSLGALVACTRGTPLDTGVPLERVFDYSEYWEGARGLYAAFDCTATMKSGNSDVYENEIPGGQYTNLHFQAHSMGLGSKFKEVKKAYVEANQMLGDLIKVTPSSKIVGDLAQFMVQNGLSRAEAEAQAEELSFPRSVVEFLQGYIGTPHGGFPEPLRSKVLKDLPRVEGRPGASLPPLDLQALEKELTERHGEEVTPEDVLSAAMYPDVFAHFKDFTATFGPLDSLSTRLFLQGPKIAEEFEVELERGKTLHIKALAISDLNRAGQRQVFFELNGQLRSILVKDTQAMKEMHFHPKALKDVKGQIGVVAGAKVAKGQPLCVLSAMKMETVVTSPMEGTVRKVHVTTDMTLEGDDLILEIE
Kind of test: Elution of PYC from ATP-Sepharose column loaded with porcine liver proteome, IC50 estimate. Particulars: estimated from percent of protein eluted from ATP-Sepharose column, read-out: Approximate IC50 for PYC. Format: binding. The method, then: Similar experiments were carried out to compare the IC50 values for PYC, PCCA, and PCCB. In these trials, a porcine liver proteome was run over an ATP-Sepharose™ column to bind all purine-binding proteins. The ATP-Sepharose™ column was washed several times, and then eluted with the compound of Formula III at concentrations of 1 μM, 5 μM, 10 μM, 50 μM, 100 μM, and 500 μM to identify proteins that bound to this compound. (The amount of protein eluted at the higher concentration ranges plateaued, thus confirming that the entire fraction of bound protein had been eluted.) The eluted fractions were run on a 1-dimensional SDS polyacrylamide gel.
Gels were stained with a fluorescent stain such as sypro ruby (a highly sensitive fluorescent protein stain that can readily detect less than 1 fmol of total protein, i.e., less than 0.04 ng for a 40 kDa protein). The gels were imaged using a standard flat bed gel imager and the amount of protein estimated by densiometry. The percent of protein eluted from the column at each concentration was determined and IC50 values were calculated from these estimates. Where necessary, the eluted proteins were cut out of the gel, and identified using mass spectral techniques.
These steps were repeated with each of the compounds of Formulas IV-X, MTX, and the c series derivative. The values obtained were then compared to those for DHFR.
As for `C#CCN(Cc1cnc2nc(N)nc(N)c2n1)c1ccc(C(=O)NC(CCC(=O)O)C(=O)O)cc1OC` (stereo not shown) [Formula VIII], the IC50 (as a rule, the concentration needed to halve the response being measured) is 3.75 µM. For the compound `Cc1cc(C(=O)NC(CCC(=O)O)C(=O)O)ccc1N(Cc1ccoc1)Cc1cnc2nc(N)nc(N)c2n1` (stereo not shown) [Formula VII], the IC50 is 3.5 µM. Turning to `C#CCN(Cc1cnc2nc(N)nc(N)c2n1)c1ccc(C(=O)NC(CCC(=O)O)C(=O)O)cc1C` (stereo not shown) [Formula III, 2-{4-[(2,4-diamino-pteridin-6-ylmethyl)-prop-2-ynyl-amino]-3-methyl-benzoylamino}-pentanedioic acid], the IC50 is 3.8 µM.

Turning to `C#CCN(Cc1cnc2nc(N)nc(N)c2n1)c1ccc(C(=O)NC(CCC(=O)O)C(=O)O)cc1OC(F)(F)F` (stereo not shown) [Formula IX], the IC50 was 7 µM.
